2 compounds from patent US20140147467A1, “Novel broth medium and blood free solid media” (priority 2012, published 2014) can be followed below.

The structures appear in SMILES notation. Values after ≈ are worked out from the molar mass of the structure shown. Where two headings read alike, the source gives them in different places.

The subject of this assay is P. salmonis. Nature of the assay: MIC by broth micro dilution in Austral-SRS broth. Format: cell-based. Conditions: Piscirickettsia salmonis.
[1] abbreviates: P. salmonis ATCC VR-1361 (type strain), 18° C., read-out: MIC value.
Where [2] appears, read: P. salmonis isolates (austral-005), 18° C., n=10, read-out: MIC values.

Turning to `CS(=O)(=O)c1ccc([C@@H](O)[C@@H](CF)NC(=O)C(Cl)Cl)cc1` [florfenicol], the MIC came to 0.5 µg/mL (≈ 1.4 µM). The MIC under setting [1] fell in the range of 0.25 to 0.5 µg/mL (≈ 0.698 to 1.4 µM). Further, the MIC under setting [2] was 0.25 to 0.5 µg/mL (≈ 0.698 to 1.4 µM).
`CN(C)[C@@H]1C(O)=C(C(N)=O)C(=O)[C@@]2(O)C(O)=C3C(=O)c4c(O)cccc4[C@@](C)(O)[C@H]3[C@H](O)[C@@H]12` [oxytetracycline] returned an MIC of 0.124 µg/mL (≈ 0.269 µM). Besides, under setting [1], the MIC lay within 0.25 to 0.5 µg/mL (≈ 0.543 to 1.09 µM). Besides, the MIC under setting [2] is 0.125 to 2.5 µg/mL (≈ 0.271 to 5.43 µM).

The MIC is the lowest concentration found to suppress growth.
